Values quoted from earlier work as cited in US20100087475A1, “PHARMACEUTICAL COMPOUNDS” (Biovali Laboratories International (Barbados) S.R.L., priority 2008, published 2010).

Biological target: VMAT2 (Homo sapiens, UniProt Q05940)
Details: Erickson et al. (1996); cited from earlier work

Sequence of VMAT2 (Q05940 whole entry): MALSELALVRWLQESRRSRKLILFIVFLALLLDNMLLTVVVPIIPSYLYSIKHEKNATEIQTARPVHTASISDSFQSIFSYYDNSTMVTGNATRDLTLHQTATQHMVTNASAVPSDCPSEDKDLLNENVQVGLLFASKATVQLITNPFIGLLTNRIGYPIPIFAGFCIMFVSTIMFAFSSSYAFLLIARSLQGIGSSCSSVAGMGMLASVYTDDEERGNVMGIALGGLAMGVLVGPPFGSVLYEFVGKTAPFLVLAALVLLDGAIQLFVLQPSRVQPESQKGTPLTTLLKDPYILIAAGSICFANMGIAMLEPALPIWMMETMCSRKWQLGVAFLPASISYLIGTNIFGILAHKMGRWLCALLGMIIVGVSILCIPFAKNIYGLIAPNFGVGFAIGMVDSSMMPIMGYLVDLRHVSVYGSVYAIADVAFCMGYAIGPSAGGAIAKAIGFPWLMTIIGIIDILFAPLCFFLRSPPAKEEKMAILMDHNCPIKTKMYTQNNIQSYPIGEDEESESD

## COc1cc2c(cc1OC)C1CC(=O)C(CC(C)C)CN1CC2 (stereo not shown) [tetrabenazine, 1,3,4,6,7,11b-hexahydro-9,10-dimethoxy-3-(2-methylpropyl)-2H-benzo(a)quinolizin-2-one]
  affinity for VMAT2 in comparison to VMAT1: ≥ 200 fold
